From article PMC10382584, “Macrocyclization of linear molecules by deep learning to facilitate macrocyclic drug candidates discovery” (Nature Communications, 2023) come the findings set out here.

Series [1] can be described thus: Chemical stability in DMSO stock solution (HPLC purity). In kind it is physicochemical. As to conditions: mean±SD. The text has this:
compounds were formulated in the solubilizing vehicle (5% DMSO/30% PEG400/65% […]
safety to the mice in the test.
6. What was the sample dissolved in for the in vitro and in vivo experiments? Response: The solvent information for the in vitro and in vivo experiments has been added in the revised manuscript. […]
7. Was the stability of the different compounds assessed and compared to Fedratinib? This is generally a critical point in macrocyclic studies. […]
in DMSO stock solution. Test compounds were incubated at room temperature and 60 ℃, respectively, for 72 h, and their purities (%) were determined using HPLC equipped with a CORTECS C18 column (4.6*50 mm, 2.7 μm particle size) and a UV/VIS detector setting of λ=210 nm. All co mpounds were eluted with the two solvent systems ([…] as organic phase in Method I and CH3OH as organic phase in Method II) at a flow rate of 0.3 ml/min. Each experiment repeated for three times and the results are represented as mean±SD.
Ta b e l R 1 . Comparison of chemical stability of different compounds at room temperature and 60 ℃, respectively.

The target of series [2] is T1, YES (Homo sapiens, UniProt P07947).
T1 construct: gene YES1
In words: biochemical. More on the design: DiscoveRx KINOMEscan competition binding, percent of DMSO control signal at 100 nM. The settings on record: read-out: Fig. 4a / Percent Control / Compound 1; percent of DMSO control, competition binding.

In series [3] the target is T2, VEGFR2 (Homo sapiens, UniProt P35968).
T2 construct: gene KDR
In words: biochemical. Set-up: DiscoveRx KINOMEscan competition binding, percent of DMSO control signal at 100 nM. As to conditions: read-out: Fig. 4a / Percent Control / Compound 1; percent of DMSO control, competition binding.

The target in series [4] is EPHA2 (Homo sapiens, UniProt P29317). In words: biochemical. More on the design: DiscoveRx KINOMEscan competition binding, percent of DMSO control signal at 100 nM. As to conditions: read-out: Fig. 4a / Percent Control / Compound 1; percent of DMSO control, competition binding.
Series [5] concerns the target SIK2 (Homo sapiens, UniProt Q9H0K1). In words: biochemical. The settings on record: read-out: Fig. 4a / Percent Control / Compound 1; percent of DMSO control, competition binding. More on the design: DiscoveRx KINOMEscan competition binding, percent of DMSO control signal at 100 nM.
Series [6] has as its target T3, ABL1(F317L)-phosphorylated (Homo sapiens, UniProt P00519, F317L).
T3 construct: phosphorylated
In words: biochemical. Set-up: DiscoveRx KINOMEscan competition binding, percent of DMSO control signal at 100 nM. The settings on record: read-out: Fig. 4a / Percent Control / Compound 1; percent of DMSO control, competition binding.

Series [7] concerns the target CSNK1E (Homo sapiens, UniProt P49674). In words: biochemical. More on the design: DiscoveRx KINOMEscan competition binding, percent of DMSO control signal at 100 nM. As to conditions: read-out: Fig. 4a / Percent Control / Compound 1; percent of DMSO control, competition binding.
In series [8] the target is T4, DRAK1 (Homo sapiens, UniProt Q9UEE5).
T4 construct: gene STK17A
The series can be described thus: biochemical. The settings on record: read-out: Fig. 4a / Percent Control / Compound 1; percent of DMSO control, competition binding. More on the design: DiscoveRx KINOMEscan competition binding, percent of DMSO control signal at 100 nM.

Series [9] concerns the target T5, p38-alpha (Homo sapiens, UniProt Q16539).
T5 construct: gene MAPK14
The series can be described thus: biochemical. Set-up: DiscoveRx KINOMEscan competition binding, percent of DMSO control signal at 100 nM. As to conditions: read-out: Fig. 4a / Percent Control / Compound 1; percent of DMSO control, competition binding.

In series [10] the target is MARK2 (Homo sapiens, UniProt Q7KZI7). In words: biochemical. Set-up: DiscoveRx KINOMEscan competition binding, percent of DMSO control signal at 100 nM. The settings on record: read-out: Fig. 4a / Percent Control / Compound 1; percent of DMSO control, competition binding.
Series [11] has as its target CSF1R-autoinhibited (Homo sapiens, UniProt P07333). The series can be described thus: biochemical. Set-up: DiscoveRx KINOMEscan competition binding, percent of DMSO control signal at 100 nM. As to conditions: read-out: Fig. 4a / Percent Control / Compound 1; percent of DMSO control, competition binding.
Series [12] has as its target MAPKAPK5 (Homo sapiens, UniProt Q8IW41). In words: biochemical. As to conditions: read-out: Fig. 4a / Percent Control / Compound 1; percent of DMSO control, competition binding. More on the design: DiscoveRx KINOMEscan competition binding, percent of DMSO control signal at 100 nM.
Series [13] addresses STK16 (Homo sapiens, UniProt O75716). In words: biochemical. Set-up: DiscoveRx KINOMEscan competition binding, percent of DMSO control signal at 100 nM. As to conditions: read-out: Fig. 4a / Percent Control / Compound 1; percent of DMSO control, competition binding.
For series [14], the target named is LCK (Homo sapiens, UniProt P06239). In words: biochemical. More on the design: DiscoveRx KINOMEscan competition binding, percent of DMSO control signal at 100 nM. As to conditions: read-out: Fig. 4a / Percent Control / Compound 1; percent of DMSO control, competition binding.
The target in series [15] is T6, ABL1-phosphorylated (Homo sapiens, UniProt P00519).
T6 construct: phosphorylated
T6 sequence (P00519 whole entry): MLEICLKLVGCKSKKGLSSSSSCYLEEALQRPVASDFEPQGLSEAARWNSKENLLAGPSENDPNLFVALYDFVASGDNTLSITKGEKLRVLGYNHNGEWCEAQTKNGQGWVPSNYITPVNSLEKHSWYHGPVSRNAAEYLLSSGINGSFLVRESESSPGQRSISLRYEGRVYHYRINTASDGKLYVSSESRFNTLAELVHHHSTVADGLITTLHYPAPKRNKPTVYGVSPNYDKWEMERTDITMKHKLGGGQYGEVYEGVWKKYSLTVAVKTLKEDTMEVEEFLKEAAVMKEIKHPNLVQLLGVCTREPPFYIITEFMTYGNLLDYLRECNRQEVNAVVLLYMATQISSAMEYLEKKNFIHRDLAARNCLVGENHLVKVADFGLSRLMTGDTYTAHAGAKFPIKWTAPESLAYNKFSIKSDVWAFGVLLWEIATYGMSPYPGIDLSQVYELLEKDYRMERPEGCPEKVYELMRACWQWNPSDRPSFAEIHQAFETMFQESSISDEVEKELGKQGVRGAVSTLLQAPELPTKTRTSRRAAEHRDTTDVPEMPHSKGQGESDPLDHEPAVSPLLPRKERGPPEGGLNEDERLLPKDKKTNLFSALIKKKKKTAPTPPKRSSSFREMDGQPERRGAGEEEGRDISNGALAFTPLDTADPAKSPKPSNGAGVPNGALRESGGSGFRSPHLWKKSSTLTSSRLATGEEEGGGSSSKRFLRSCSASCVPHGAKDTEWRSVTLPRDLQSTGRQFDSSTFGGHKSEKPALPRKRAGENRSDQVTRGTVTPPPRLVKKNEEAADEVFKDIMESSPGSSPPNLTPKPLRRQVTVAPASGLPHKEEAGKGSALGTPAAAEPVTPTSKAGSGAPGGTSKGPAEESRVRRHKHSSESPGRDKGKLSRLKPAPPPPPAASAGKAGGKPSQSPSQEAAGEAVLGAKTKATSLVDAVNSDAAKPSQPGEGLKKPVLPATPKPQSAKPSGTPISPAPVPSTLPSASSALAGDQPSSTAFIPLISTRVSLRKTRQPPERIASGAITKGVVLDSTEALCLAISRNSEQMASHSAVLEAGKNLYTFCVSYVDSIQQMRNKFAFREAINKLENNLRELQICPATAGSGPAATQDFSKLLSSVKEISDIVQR
In words: biochemical. More on the design: DiscoveRx KINOMEscan competition binding, percent of DMSO control signal at 100 nM. As to conditions: read-out: Fig. 4a / Percent Control / Compound 1; percent of DMSO control, competition binding.

Series [16] deals with T7, MLK3 (Homo sapiens, UniProt Q16584).
T7 construct: gene MAP3K11
The series can be described thus: biochemical. More on the design: DiscoveRx KINOMEscan competition binding, percent of DMSO control signal at 100 nM. The settings on record: read-out: Fig. 4a / Percent Control / Compound 1; percent of DMSO control, competition binding.

The target of series [17] is ROS1 (Homo sapiens, UniProt P08922). In words: biochemical. Set-up: DiscoveRx KINOMEscan competition binding, percent of DMSO control signal at 100 nM. The settings on record: read-out: Fig. 4a / Percent Control / Compound 1; percent of DMSO control, competition binding.
The target of series [18] is MERTK (Homo sapiens, UniProt Q12866). In words: biochemical. More on the design: DiscoveRx KINOMEscan competition binding, percent of DMSO control signal at 100 nM. As to conditions: read-out: Fig. 4a / Percent Control / Compound 1; percent of DMSO control, competition binding.
Series [19] addresses RIOK3 (Homo sapiens, UniProt O14730). In words: biochemical. Set-up: DiscoveRx KINOMEscan competition binding, percent of DMSO control signal at 100 nM. As to conditions: read-out: Fig. 4a / Percent Control / Compound 1; percent of DMSO control, competition binding.
In series [20] the target is DDR1 (Homo sapiens, UniProt Q08345). In words: biochemical. More on the design: DiscoveRx KINOMEscan competition binding, percent of DMSO control signal at 100 nM. The settings on record: read-out: Fig. 4a / Percent Control / Compound 1; percent of DMSO control, competition binding.
In series [21] the target is T8, MLK2 (Homo sapiens, UniProt Q02779).
T8 construct: gene MAP3K10
T8 sequence (Q02779 whole entry): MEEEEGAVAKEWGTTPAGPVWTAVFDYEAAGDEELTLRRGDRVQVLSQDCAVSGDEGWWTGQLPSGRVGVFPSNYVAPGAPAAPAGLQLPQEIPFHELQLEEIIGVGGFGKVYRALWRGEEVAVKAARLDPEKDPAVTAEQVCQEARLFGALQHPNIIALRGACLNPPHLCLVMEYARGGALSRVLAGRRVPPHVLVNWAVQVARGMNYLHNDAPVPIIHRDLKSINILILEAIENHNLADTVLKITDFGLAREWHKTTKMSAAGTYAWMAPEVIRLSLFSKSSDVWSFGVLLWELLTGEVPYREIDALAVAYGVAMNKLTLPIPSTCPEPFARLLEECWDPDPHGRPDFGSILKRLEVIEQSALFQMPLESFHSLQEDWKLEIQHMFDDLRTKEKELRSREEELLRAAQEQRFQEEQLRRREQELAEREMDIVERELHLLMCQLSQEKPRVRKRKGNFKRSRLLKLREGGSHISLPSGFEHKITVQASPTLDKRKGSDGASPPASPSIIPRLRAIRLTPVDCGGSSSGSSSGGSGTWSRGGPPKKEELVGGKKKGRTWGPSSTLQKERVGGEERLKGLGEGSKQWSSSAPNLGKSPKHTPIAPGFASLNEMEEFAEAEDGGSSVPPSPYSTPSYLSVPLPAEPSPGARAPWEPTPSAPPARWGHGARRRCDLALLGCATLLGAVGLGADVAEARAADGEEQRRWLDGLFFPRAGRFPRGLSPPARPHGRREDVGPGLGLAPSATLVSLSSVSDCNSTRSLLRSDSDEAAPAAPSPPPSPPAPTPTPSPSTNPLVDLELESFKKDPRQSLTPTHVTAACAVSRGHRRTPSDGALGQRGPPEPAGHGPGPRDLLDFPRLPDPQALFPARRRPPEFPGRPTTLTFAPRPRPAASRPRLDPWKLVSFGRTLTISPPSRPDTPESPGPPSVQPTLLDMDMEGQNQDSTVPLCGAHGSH
In words: biochemical. Set-up: DiscoveRx KINOMEscan competition binding, percent of DMSO control signal at 100 nM. As to conditions: read-out: Fig. 4a / Percent Control / Compound 1; percent of DMSO control, competition binding.

SIK2, sequence (Q9H0K1 whole entry): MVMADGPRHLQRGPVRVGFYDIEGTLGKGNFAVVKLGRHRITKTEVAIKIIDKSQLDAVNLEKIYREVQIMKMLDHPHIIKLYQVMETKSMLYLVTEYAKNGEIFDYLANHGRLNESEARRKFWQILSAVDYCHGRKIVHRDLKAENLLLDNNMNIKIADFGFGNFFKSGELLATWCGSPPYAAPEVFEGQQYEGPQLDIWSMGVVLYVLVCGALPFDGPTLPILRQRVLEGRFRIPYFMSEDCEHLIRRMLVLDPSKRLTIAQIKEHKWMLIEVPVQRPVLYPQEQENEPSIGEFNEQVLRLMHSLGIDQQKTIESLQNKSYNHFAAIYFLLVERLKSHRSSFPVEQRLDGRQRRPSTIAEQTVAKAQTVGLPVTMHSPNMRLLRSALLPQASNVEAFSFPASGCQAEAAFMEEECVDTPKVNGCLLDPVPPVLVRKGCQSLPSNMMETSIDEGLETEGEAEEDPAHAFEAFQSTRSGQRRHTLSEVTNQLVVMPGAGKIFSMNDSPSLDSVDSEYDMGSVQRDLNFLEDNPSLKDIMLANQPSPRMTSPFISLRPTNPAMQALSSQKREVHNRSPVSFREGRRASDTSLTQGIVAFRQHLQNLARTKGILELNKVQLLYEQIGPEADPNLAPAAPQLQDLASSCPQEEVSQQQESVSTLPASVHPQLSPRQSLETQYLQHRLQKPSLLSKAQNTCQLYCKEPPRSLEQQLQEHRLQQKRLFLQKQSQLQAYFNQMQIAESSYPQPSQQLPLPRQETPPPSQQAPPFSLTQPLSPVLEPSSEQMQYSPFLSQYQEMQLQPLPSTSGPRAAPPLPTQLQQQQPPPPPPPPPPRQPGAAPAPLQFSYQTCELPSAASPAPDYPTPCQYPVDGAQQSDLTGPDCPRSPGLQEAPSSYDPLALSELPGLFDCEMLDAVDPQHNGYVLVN
CSF1R-autoinhibited, sequence (P07333 whole entry): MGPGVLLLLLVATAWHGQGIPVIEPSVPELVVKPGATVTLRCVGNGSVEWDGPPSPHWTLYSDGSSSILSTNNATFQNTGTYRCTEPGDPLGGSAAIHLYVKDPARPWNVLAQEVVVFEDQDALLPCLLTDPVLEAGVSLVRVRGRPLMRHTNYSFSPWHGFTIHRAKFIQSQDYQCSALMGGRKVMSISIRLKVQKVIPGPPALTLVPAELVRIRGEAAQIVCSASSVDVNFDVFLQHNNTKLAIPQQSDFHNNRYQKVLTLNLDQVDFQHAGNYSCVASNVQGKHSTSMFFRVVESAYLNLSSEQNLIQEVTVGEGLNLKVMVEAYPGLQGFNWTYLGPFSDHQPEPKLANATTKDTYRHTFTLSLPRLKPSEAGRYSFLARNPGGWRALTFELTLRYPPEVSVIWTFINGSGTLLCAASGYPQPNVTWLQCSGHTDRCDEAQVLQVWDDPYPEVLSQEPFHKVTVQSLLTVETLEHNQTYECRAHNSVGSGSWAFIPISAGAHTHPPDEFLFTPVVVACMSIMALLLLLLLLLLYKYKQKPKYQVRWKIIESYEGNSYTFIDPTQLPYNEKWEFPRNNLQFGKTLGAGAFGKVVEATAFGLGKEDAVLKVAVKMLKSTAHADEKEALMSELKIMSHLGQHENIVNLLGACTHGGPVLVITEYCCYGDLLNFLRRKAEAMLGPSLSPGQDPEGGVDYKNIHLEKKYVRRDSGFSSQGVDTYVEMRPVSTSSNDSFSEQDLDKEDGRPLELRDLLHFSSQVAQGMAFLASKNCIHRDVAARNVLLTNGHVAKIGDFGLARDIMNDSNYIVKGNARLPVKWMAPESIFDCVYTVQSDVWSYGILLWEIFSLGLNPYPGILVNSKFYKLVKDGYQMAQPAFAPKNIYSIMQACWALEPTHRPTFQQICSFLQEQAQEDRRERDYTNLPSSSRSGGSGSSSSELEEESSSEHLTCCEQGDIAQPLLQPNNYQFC
CSNK1E, sequence (P49674 whole entry): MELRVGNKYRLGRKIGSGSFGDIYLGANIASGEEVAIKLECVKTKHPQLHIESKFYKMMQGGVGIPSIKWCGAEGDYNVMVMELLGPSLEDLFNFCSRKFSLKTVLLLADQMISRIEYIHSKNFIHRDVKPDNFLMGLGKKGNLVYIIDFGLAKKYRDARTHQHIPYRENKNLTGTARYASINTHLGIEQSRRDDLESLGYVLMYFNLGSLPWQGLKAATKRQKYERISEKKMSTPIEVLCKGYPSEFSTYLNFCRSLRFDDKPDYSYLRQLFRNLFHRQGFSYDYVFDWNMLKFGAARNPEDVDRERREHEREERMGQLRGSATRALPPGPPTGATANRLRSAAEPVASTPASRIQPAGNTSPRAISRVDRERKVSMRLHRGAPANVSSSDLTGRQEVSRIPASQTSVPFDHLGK
RIOK3, sequence (O14730 whole entry): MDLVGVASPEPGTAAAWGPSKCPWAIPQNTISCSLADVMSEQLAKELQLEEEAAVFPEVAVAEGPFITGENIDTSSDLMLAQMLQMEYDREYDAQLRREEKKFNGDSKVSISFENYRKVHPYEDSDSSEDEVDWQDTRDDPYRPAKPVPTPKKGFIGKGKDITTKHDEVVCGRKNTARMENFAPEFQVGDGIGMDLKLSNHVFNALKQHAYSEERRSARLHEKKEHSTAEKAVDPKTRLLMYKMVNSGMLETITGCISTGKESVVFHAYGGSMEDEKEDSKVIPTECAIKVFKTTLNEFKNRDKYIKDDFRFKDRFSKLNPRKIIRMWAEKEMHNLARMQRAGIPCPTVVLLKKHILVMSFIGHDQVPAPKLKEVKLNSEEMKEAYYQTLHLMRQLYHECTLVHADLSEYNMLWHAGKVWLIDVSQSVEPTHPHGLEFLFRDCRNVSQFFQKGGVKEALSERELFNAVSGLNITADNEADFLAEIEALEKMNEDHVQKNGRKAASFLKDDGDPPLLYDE
T3 sequence (P00519 whole entry F317L): as the sequence (P00519 whole entry) above, with F317L counted along it

Turning to `Cc1cnc(Nc2ccc(OCCN3CCCC3)cc2)nc1Nc1cccc(S(=O)(=O)NC(C)(C)C)c1` [Fedratinib], the “purity after incubation in DMSO stock solution” value (“purity after incubation” below) is recorded as 98.91±0.10% in series [1] (60 ℃, 0 h); 98.91±0.10% in [1] (60 ℃, 2 h); 98.89±0.17% in series [1] (60 ℃, 24 h); 100.00±0.00% in series [1] (60 ℃, 48 h); 98.96±0.15% in series [1] (60 ℃, 72 h); 99.36±0.06% in series [1] (Room Temperature, 0 h). For the same compound, the “purity after incubation” value in series [1] (Room Temperature, 2 h) is reported as 99.11±0.14%; in [1] (Room Temperature, 24 h), 99.99±0.00%; in [1] (Room Temperature, 48 h), 99.08±0.02%; in series [1] (Room Temperature, 72 h), 99.57±0.06%.
With `Cc1cnc2nc1Nc1cccc(c1)COCc1cc(ccc1OCCN1CCCC1)N2` [Compound 1], the remaining binding at 0.1 µM is 80% in [2]; 63% in series [3]; 82% in series [4]; 94% in series [5]; 70% in series [6]; 70% in [7]. The remaining binding at 0.1 µM in series [8] was 100%; in series [9] it was 100%; in series [10] it was 89%; in series [11], 54%; in series [12], 69%; in series [13] it was 18%. The remaining binding at 0.1 µM was 72% in series [14]; 90% in [15]; 94% in series [16]; 76% in series [17]; 81% in [18]; 79% in series [19]. In addition, the remaining binding at 0.1 µM in series [20] was 93%; in [21] it was 98%.
Turning to `Cc1cnc2nc1Nc1cccc(c1)COCC=CCOCc1cc(ccc1OCCN1CCCC1)N2` [Compound 3], the “purity after incubation” value in series [1] (60 ℃, 0 h) turned out to be 99.78±0.07%; in [1] (60 ℃, 2 h) it was 99.46±0.04%; in series [1] (60 ℃, 24 h), 99.64±0.04%; in series [1] (60 ℃, 48 h), 99.66±0.06%; in series [1] (60 ℃, 72 h), 99.78±0.03%; in series [1] (Room Temperature, 0 h), 99.68±0.05%. Also, the “purity after incubation” value is recorded as 99.77±0.01% in series [1] (Room Temperature, 2 h); 99.68±0.07% in series [1] (Room Temperature, 24 h); 99.63±0.02% in series [1] (Room Temperature, 48 h); 99.64±0.10% in series [1] (Room Temperature, 72 h).
